The source made the active and inactive calls. The rule behind the calls is not given here.
Columns and labels:
[1] = Half life in mouse plasma at 25 uM by HPLC analysis; type: ADME, cell-free
[2] = Half life of compound in PBS buffer at pH 7.4 at 50 uM by HPLC analysis; type: physicochemical
[3] = Half life in human plasma at 25 uM by HPLC analysis; type: ADME, cell-free
[4] = Half life of compound in PBS buffer at pH 6.0 at 50 uM by HPLC analysis; type: physicochemical
[5] = molecular target: Heat shock protein HSP 90-alpha (Homo sapiens, UniProt P07900); assay: biochemical
Description: Inhibition of recombinant human full length HSP90 alpha expressed in Escherichia coli cells after 1 hr by fluorescence polarization assay

[6] = Drug uptake in human A549 cells assessed as blue shift in absorption spectrum at 5 uM by UV-visible absorption spectral analysis; type: ADME, cell-based; settings: a549, 5 µM
CAPAN-1 [7] = assay: Induction of cell cycle arrest in human Capan1 cells at 3 nM after 24 hrs by RNase A/PI-staining based flow cytometric analysis; type: functional
CAPAN-1 [8] = assay: Antiproliferative activity against human Capan1 cells assessed as reduction in cell viability after 72 hrs by SRB assay; type: functional, cell-based; settings: CAPAN-1, 72 h
A549 [9] = assay: Induction of cell cycle arrest in human A549 cells at 3 to 10 nM after 24 hrs by RNase A/PI-staining based flow cytometric analysis; type: functional
HCT-116 [10] = assay: Induction of cell cycle arrest in human HCT116 cells at 3 nM after 24 hrs by RNase A/PI-staining based flow cytometric analysis; type: functional
[11] = Drug uptake in human A549 cells assessed as maximum emission peaks at 430 nm at 5 uM by fluorescence emission spectral analysis; type: ADME, cell-based; settings: a549, 5 µM
MIA PaCa-2 = assay: Antiproliferative activity against human MIAPaCa2 cells assessed as reduction in cell viability after 72 hrs by SRB assay; type: functional, cell-based; settings: MIA PaCa-2, 72 h
[12] = Drug uptake in human A549 cells assessed as blue fluorescence at 5 uM after 12 hrs by confocal laser scanning microscopic analysis; type: ADME, cell-based; settings: a549, 12 h
A549 [13] = assay: Antiproliferative activity against human A549 cells assessed as reduction in cell viability after 72 hrs by SRB assay; type: functional, cell-based; settings: A549, 72 h
HCT-116 [14] = assay: Downregulation of TOP1 expression in human HCT116 cells at 0.04 uM after 24 hrs by Western blot analysis; type: functional, cell-based
L02 = assay: Cytotoxicity agains human HL7702 cells assessed as reduction in cell viability after 72 hrs by SRB assay; type: cell-based; settings: L02, 72 h
HCT-116 [15] = assay: Antiproliferative activity against human HCT116 cells assessed as reduction in cell viability after 72 hrs by SRB assay; type: functional, cell-based; settings: HCT-116, 72 h
A549 [16] = assay: Downregulation of TOP1 expression in human A549 cells at 0.04 uM after 24 hrs by Western blot analysis; type: functional, cell-based

Row | Compound | half-life at 25 µM [1] | half-life at 50 µM [2] | half-life at 25 µM [3] | half-life at 50 µM [4] | IC50 [5] | Drug uptake [6] | Activity (CAPAN-1 [7]) | IC50 (CAPAN-1 [8]) | Activity (A549 [9]) | Activity (HCT-116 [10]) | Drug uptake [11] | IC50 (MIA PaCa-2) | Drug uptake [12] | IC50 (A549 [13]) | inhibition (HCT-116 [14]) | IC50 (L02) | IC50 (HCT-116 [15]) | inhibition (A549 [16])
1 | CCc1c2c(nc3ccc(OC(=O)N4CCC(NC(=O)CNc5cc(-n6nc(C(F)(F)F)c7c6CC(C)(C)CC7=O)ccc5C(N)=O)CC4)cc13)-c1cc3c(c(=O)n1C2)COC(=O)[C@]3(O)CC | > 24 h | > 24 h | > 24 h | > 24 h | 1260 nM |  |  |  |  |  |  |  |  |  |  |  |  | 
2 | CCc1c2c(nc3ccc(O)cc13)-c1cc3c(c(=O)n1C2)COC(=O)[C@@]3(CC)OC(=O)CNC(=O)CNc1cc(-n2nc(C(F)(F)F)c3c2CC(C)(C)CC3=O)ccc1C(N)=O | 10 h | 7 h | 13 h | > 24 h | 1510 nM |  |  |  |  |  |  |  |  |  |  |  |  | 
3 | CCc1c2c(nc3ccc(O)cc13)-c1cc3c(c(=O)n1C2)COC(=O)[C@]3(O)CC [7-ETHYL-10-HYDROXYCAMPTOTHECIN] |  |  |  |  |  | Active | Active | 8 nM | Active | Active | Active | 13 nM | Active | 11 nM | Active | 18 nM | 4 nM | Active

— ChEMBL document CHEMBL4354883, “Design, Synthesis, and Biological Evaluation of HSP90 Inhibitor-SN38 Conjugates for Targeted Drug Accumulation” (J Med Chem, 2020)
